Measured values published in PubChem BioAssay (NCI).
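Cultured in 96-well plates, cells were exposed to test compound for 48 hours across five concentrations. GI50 marks 50% less growth. At the TGI there is no net growth.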

What was measured:
Assay in all cases: NCI anticancer screen, dose series, 48 h
[1] = test system: 786-0 renal
[2] = test system: A498 renal
[3] = test system: A549 NSCLC
[4] = test system: ACHN renal
[5] = test system: BT-549 breast
[6] = test system: CAKI-1 renal
[7] = test system: CCRF-CEM leukemia
[8] = test system: COLO 205 colon
[9] = test system: DU-145 prostate
[10] = test system: HCC-2998 colon
[11] = test system: HCT-116 colon
[12] = test system: HCT-15 colon
[13] = test system: HL-60(TB) leukemia
[14] = test system: HOP-62 NSCLC
[15] = test system: HOP-92 NSCLC
[16] = test system: HS 578T breast
[17] = test system: HT29 colon
[18] = test system: IGROV1 ovarian
[19] = test system: K-562 leukemia
[20] = test system: KM12 colon
[21] = test system: LOX IMVI melanoma
[22] = test system: M14 melanoma
[23] = test system: MALME-3M melanoma
[24] = test system: MCF7 breast
[25] = test system: MDA-MB-231 breast
[26] = test system: MDA-MB-435
[27] = test system: MOLT-4 leukemia
[28] = test system: NCI-H226 lung
[29] = test system: NCI-H23 lung
[30] = test system: NCI-H460 lung
[31] = test system: NCI-H522 lung
[32] = test system: NCI/ADR-RES ovarian
[33] = test system: OVCAR-3 ovarian
[34] = test system: OVCAR-4 ovarian
[35] = test system: OVCAR-5 ovarian
[36] = test system: OVCAR-8 ovarian
[37] = test system: PC-3 prostate
[38] = test system: RPMI-8226 leukemia
[39] = test system: RXF 393 renal
[40] = test system: SF-268 CNS
[41] = test system: SF-295 CNS
[42] = test system: SF-539 CNS
[43] = test system: SK-MEL-2 melanoma
[44] = test system: SK-MEL-28 melanoma
[45] = test system: SK-MEL-5 melanoma
[46] = test system: SK-OV-3 ovarian
[47] = test system: SN12C renal
[48] = test system: SNB-19 CNS
[49] = test system: SNB-75 CNS
[50] = test system: SR leukemia
[51] = test system: SW-620 colon
[52] = test system: T-47D breast
[53] = test system: TK-10 renal
[54] = test system: U251 CNS
[55] = test system: UACC-257 melanoma
[56] = test system: UACC-62 melanoma
[57] = test system: UO-31 renal

Molecule `Cn1cc(C2=C(c3c4n(c5ccccc35)CCCC4)C(=O)NC2=O)c2ccccc21` has a GI50 [1] of over 17.8 µM, a TGI [1] of over 25 µM and a GI50 [2] of 5.19 µM. For the same molecule, the TGI [2] was over 25 µM, the GI50 [3] was 12.5 µM and the TGI [3] was over 25 µM. For the same molecule, the GI50 [4] was 20.4 µM, the TGI [4] was over 25 µM and the GI50 [5] was over 18.5 µM. It also gave a TGI [5] of over 25 µM, a GI50 [6] of 8.1 µM and a TGI [6] of over 25 µM. For the same molecule, the GI50 [7] was over 15.3 µM, the TGI [7] was over 25 µM and the GI50 [8] was 10.7 µM. For the same molecule, the TGI [8] was over 25 µM, the GI50 [9] was over 15 µM and the TGI [9] was over 25 µM. The GI50 [10] was over 23.8 µM, the TGI [10] was over 25 µM and the GI50 [11] was 11.4 µM. The TGI [11] was over 25 µM, the GI50 [12] was 11 µM and the TGI [12] was over 25 µM. It also gave a GI50 [13] of 9.59 µM, a TGI [13] of over 25 µM and a GI50 [14] of over 17.6 µM. It also gave a TGI [14] of over 25 µM, a GI50 [15] of 8.89 µM and a TGI [15] of over 25 µM. For the same molecule, the GI50 [16] was 5.13 µM, the TGI [16] was over 25 µM and the GI50 [17] was 9.39 µM. It also gave a TGI [17] of over 25 µM, a GI50 [18] of over 8.23 µM and a TGI [18] of over 25 µM. It also gave a GI50 [19] of 5.32 µM, a TGI [19] of over 25 µM and a GI50 [20] of 9.71 µM. It also gave a TGI [20] of over 25 µM, a GI50 [21] of 16.6 µM and a TGI [21] of over 25 µM. It also gave a GI50 [22] of 13.4 µM, a TGI [22] of over 25 µM and a GI50 [23] of over 17.8 µM. It also gave a TGI [23] of over 25 µM, a GI50 [24] of 6.58 µM and a TGI [24] of over 25 µM. The GI50 [25] was over 20.2 µM, the TGI [25] was over 25 µM and the GI50 [26] was 1.08 µM. It also gave a TGI [26] of over 15.2 µM, a GI50 [27] of over 17.2 µM and a TGI [27] of over 25 µM. For the same molecule, the GI50 [28] was over 22 µM, the TGI [28] was over 25 µM and the GI50 [29] was over 18.2 µM. The TGI [29] was over 25 µM, the GI50 [30] was 9.9 µM and the TGI [30] was over 25 µM. For the same molecule, the GI50 [31] was 4.29 µM, the TGI [31] was over 16.3 µM and the GI50 [32] was 7.81 µM. It also gave a TGI [32] of over 25 µM, a GI50 [33] of 6.43 µM and a TGI [33] of over 21.6 µM. It also gave a GI50 [34] of over 16.5 µM, a TGI [34] of over 25 µM and a GI50 [35] of over 25 µM. It also gave a TGI [35] of over 25 µM, a GI50 [36] of over 18.4 µM and a TGI [36] of over 25 µM. It also gave a GI50 [37] of 10.4 µM, a TGI [37] of over 25 µM and a GI50 [38] of over 15.6 µM. It also gave a TGI [38] of over 25 µM, a GI50 [39] of 5.86 µM and a TGI [39] of over 16.1 µM. It also gave a GI50 [40] of 12 µM, a TGI [40] of over 25 µM and a GI50 [41] of 7.21 µM. It also gave a TGI [41] of over 25 µM, a GI50 [42] of 10.5 µM and a TGI [42] of over 25 µM. It also gave a GI50 [43] of 10.1 µM, a TGI [43] of over 25 µM and a GI50 [44] of over 21.8 µM. For the same molecule, the TGI [44] was over 25 µM, the GI50 [45] was 7.94 µM and the TGI [45] was over 25 µM. It also gave a GI50 [46] of over 15.3 µM, a TGI [46] of over 25 µM and a GI50 [47] of 15.1 µM. For the same molecule, the TGI [47] was over 25 µM, the GI50 [48] was 20.6 µM and the TGI [48] was over 25 µM. It also gave a GI50 [49] of 3.82 µM, a TGI [49] of 19.3 µM and a GI50 [50] of 5.92 µM. For the same molecule, the TGI [50] was over 25 µM, the GI50 [51] was 8.74 µM and the TGI [51] was over 25 µM. The GI50 [52] was over 15.5 µM, the TGI [52] was over 25 µM and the GI50 [53] was over 20.1 µM. It also gave a TGI [53] of over 25 µM, a GI50 [54] of 13.2 µM and a TGI [54] of over 25 µM. It also gave a GI50 [55] of over 21.7 µM, a TGI [55] of over 25 µM and a GI50 [56] of 6.32 µM. For the same molecule, the TGI [56] was over 25 µM, the GI50 [57] was 11.3 µM and the TGI [57] was over 25 µM.
